This is an account of results in PubChem BioAssay (NCI).

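Five compound concentrations were applied to cells in 96-well plates for 48 hours; endpoints were derived by simple linear interpolation of the resulting dose-response curve. The concentration for 50% growth inhibition is given as GI50. Definition used: TGI = concentration required for complete inhibition of growth.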

Some test systems named below: M14 melanoma; SK-MEL-5 melanoma; NCI-H522 lung; KM12 colon; SK-OV-3 ovarian; SNB-19 CNS; K-562 leukemia; LOX IMVI melanoma; MOLT-4 leukemia.
What all share (assay): NCI anticancer screen, dose series, 48 h

On to `NNC(=O)N/N=C1\CNC(=O)C(=O)C1c1nc2ccccc2s1` (configuration not stated), for which the TGI with M14 melanoma, with SK-MEL-5 melanoma, in the test on NCI-H522 lung, with KM12 colon, with SK-OV-3 ovarian and in the test with SNB-19 CNS was greater than 100 µM in each case. In addition, the TGI in the test on K-562 leukemia and in the test with LOX IMVI melanoma was greater than 100 µM throughout.

On to `Cc1c(C)c2ccc(OC(C)C(=O)O)cc2oc1=O` (configuration not stated), for which the TGI with M14 melanoma, in the test on SK-MEL-5 melanoma, in the test with NCI-H522 lung, in the test with KM12 colon, in the test on SK-OV-3 ovarian and in the test on SNB-19 CNS was greater than 100 µM throughout. In addition, the TGI in the test with K-562 leukemia, in the test on MOLT-4 leukemia and with LOX IMVI melanoma was greater than 100 µM in each case.

Take `C/C(CC(=O)Nc1cccc(Cl)c1C)=N\N=C(N)N`: the TGI in the test on M14 melanoma, in the test with SK-MEL-5 melanoma, with NCI-H522 lung, in the test with KM12 colon, in the test with SK-OV-3 ovarian and in the test on SNB-19 CNS was greater than 100 µM in each case. For the same compound, the TGI in the test with K-562 leukemia, with MOLT-4 leukemia and with LOX IMVI melanoma was greater than 100 µM each time.

Take `CC(C)=CC(=O)CC(=O)C(=O)NCCNC(=O)C(=O)CC(=O)C=C(C)C`: the TGI with M14 melanoma, in the test on KM12 colon, in the test with SK-OV-3 ovarian, in the test with SNB-19 CNS and with LOX IMVI melanoma was greater than 50 µM each time.

Turning to `CCOc1ccc(/C=C2/C(=O)N=C(N)N=C2N)cc1OCC`, the TGI in the test with M14 melanoma, in the test with SK-MEL-5 melanoma, in the test on NCI-H522 lung, in the test with KM12 colon, in the test on SK-OV-3 ovarian and with SNB-19 CNS was greater than 100 µM each time. Further, the TGI in the test with K-562 leukemia, in the test on MOLT-4 leukemia and in the test on LOX IMVI melanoma was greater than 100 µM in each case.

Consider `O=c1[nH]c(=O)n(C2CC(O)C(O)C(CO)O2)cc1F` (configuration not stated), for which the TGI in the test with M14 melanoma, with NCI-H522 lung, in the test with KM12 colon, in the test with SK-OV-3 ovarian, in the test on SNB-19 CNS and in the test on K-562 leukemia was greater than 100 µM in each case. Also, the TGI in the test with MOLT-4 leukemia and in the test with LOX IMVI melanoma was greater than 100 µM throughout.

As for `O=C(Nc1ccc(Cl)c(Cl)c1)C1C(=O)N(c2ccc(Cl)c(Cl)c2)C(=O)/C1=N\O` (configuration not stated), the TGI is 53.8 µM in the test on M14 melanoma; greater than 100 µM with SK-MEL-5 melanoma; greater than 100 µM with NCI-H522 lung; greater than 100 µM in the test with SK-OV-3 ovarian; greater than 100 µM in the test with SNB-19 CNS; greater than 100 µM in the test with K-562 leukemia. Further, the TGI in the test on MOLT-4 leukemia was greater than 100 µM; in the test with LOX IMVI melanoma, 87.7 µM.

Regarding `C1=C(c2ccccc2)C(OC2Oc3ccccc3C=C2c2ccccc2)Oc2ccccc21` (configuration not stated), the TGI with M14 melanoma, in the test on SK-MEL-5 melanoma, in the test on NCI-H522 lung, in the test with KM12 colon, with SK-OV-3 ovarian and in the test on SNB-19 CNS was greater than 100 µM each time. Besides, the TGI in the test with K-562 leukemia, in the test on MOLT-4 leukemia and in the test on LOX IMVI melanoma was greater than 100 µM in each case.

For the compound `O=C(CCC(=O)C1Cc2ccccc2C1=O)Nc1cccc(C(F)(F)F)c1` (configuration not stated), the TGI in the test with M14 melanoma, with SK-MEL-5 melanoma, with KM12 colon, in the test with SK-OV-3 ovarian, with SNB-19 CNS and with K-562 leukemia was greater than 100 µM each time. For the same compound, the TGI in the test on MOLT-4 leukemia and in the test on LOX IMVI melanoma was greater than 100 µM throughout.

Take `Cn1cc(NC(=O)c2cc(NC(=O)CCCCCCCC(=O)Nc3cc(C(=O)Nc4cc(C(=O)NCCC(=N)N)n(C)c4)n(C)c3)cn2C)cc1C(=O)NCCC(=N)N`: the TGI in the test with M14 melanoma was greater than 100 µM; with SK-MEL-5 melanoma, 22.3 µM; in the test on KM12 colon, 20 µM; with SK-OV-3 ovarian, greater than 100 µM; in the test on SNB-19 CNS it was greater than 100 µM; with K-562 leukemia it was greater than 100 µM. For the same compound, the TGI with MOLT-4 leukemia worked out at 66.7 µM; with LOX IMVI melanoma, 28.8 µM.

Regarding `C1CCN2CC3CONC3C2C1` (configuration not stated), the TGI in the test on M14 melanoma, in the test on SK-MEL-5 melanoma, with NCI-H522 lung, with KM12 colon, in the test on SNB-19 CNS and in the test on K-562 leukemia was greater than 100 µM in each case. Besides, the TGI in the test with MOLT-4 leukemia and with LOX IMVI melanoma was greater than 100 µM in each case.

In the case of `Nc1c(-c2nc3ccccc3s2)[n+]([O-])c2ccccc2[n+]1[O-]`, the TGI is 74.2 µM in the test on M14 melanoma; 40.4 µM with SK-MEL-5 melanoma; 45.8 µM in the test with NCI-H522 lung; greater than 100 µM in the test with KM12 colon; 88.9 µM in the test with SK-OV-3 ovarian; greater than 100 µM in the test on SNB-19 CNS. The TGI in the test on K-562 leukemia and in the test on MOLT-4 leukemia was greater than 100 µM throughout.

As for `O=C1c2ccoc2C(=O)c2oc(=O)ccc21`, the TGI is 21.8 µM in the test on M14 melanoma; 3.15 µM with SK-MEL-5 melanoma; 4.18 µM with NCI-H522 lung; greater than 57.7 µM with KM12 colon; greater than 57.9 µM in the test with SK-OV-3 ovarian; 31 µM in the test on SNB-19 CNS. Moreover, the TGI in the test with K-562 leukemia turned out to be 22.4 µM; in the test with LOX IMVI melanoma, 10.7 µM.

Turning to `Nc1c(C(=O)Nc2ccccc2O)[n+]([O-])c2ccccc2[n+]1[O-]`, the TGI with M14 melanoma was greater than 100 µM; with SK-MEL-5 melanoma, 28.3 µM; in the test on NCI-H522 lung, greater than 100 µM; in the test on KM12 colon, greater than 100 µM; with SK-OV-3 ovarian, greater than 100 µM; with SNB-19 CNS, greater than 100 µM. The TGI in the test with K-562 leukemia and in the test with MOLT-4 leukemia was greater than 100 µM throughout.

As for `O=c1c2cccc3cccc(c4n1CCCN=4)c32`, the TGI in the test on M14 melanoma, in the test on SK-MEL-5 melanoma, in the test with NCI-H522 lung, in the test on KM12 colon, in the test on SK-OV-3 ovarian and in the test with K-562 leukemia was greater than 100 µM each time. Also, the TGI with MOLT-4 leukemia was greater than 100 µM; in the test with LOX IMVI melanoma, 53.5 µM.

Regarding `Nc1ncnc2sc(Nc3ccccc3)nc12`, the TGI with M14 melanoma, in the test on NCI-H522 lung, in the test on KM12 colon, with SK-OV-3 ovarian, in the test with SNB-19 CNS and in the test with K-562 leukemia was greater than 100 µM in each case. Moreover, the TGI with MOLT-4 leukemia and with LOX IMVI melanoma was greater than 100 µM each time.

For the compound `CC(C)(C)c1cc(C(OCCl)(C(F)(F)F)C(F)(F)F)c2c(c1)C(C(F)(F)F)(C(F)(F)F)OC21c2ccccc2C(=O)c2ccccc21`, the TGI with M14 melanoma, with SK-MEL-5 melanoma, in the test on NCI-H522 lung, in the test with KM12 colon, with SNB-19 CNS and in the test with K-562 leukemia was greater than 100 µM each time. Also, the TGI in the test on MOLT-4 leukemia is greater than 100 µM.

In the case of `COc1ccc2c3c(c(C(=O)O)oc13)C(CCC(=O)O)CC2` (configuration not stated), the TGI with M14 melanoma, in the test with SK-MEL-5 melanoma, with SK-OV-3 ovarian, with SNB-19 CNS and with LOX IMVI melanoma was greater than 100 µM each time.

As to `CC1(C)CC(O)CC(C)(C)N1.CC1(C)CC(O)CC(C)(C)N1.CC1(C)CC(O)CC(C)(C)N1.CC1(C)CC(O)CC(C)(C)N1.Cl.[Ti]`, the GI50 in the test on M14 melanoma, with SK-MEL-5 melanoma, in the test on NCI-H522 lung, in the test on KM12 colon, with SK-OV-3 ovarian and in the test on K-562 leukemia was greater than 100 µM in each case. The GI50 in the test on MOLT-4 leukemia and in the test with LOX IMVI melanoma was greater than 100 µM throughout. Moreover, the TGI in the test on M14 melanoma, in the test with SK-MEL-5 melanoma, in the test with NCI-H522 lung, in the test on KM12 colon, with SK-OV-3 ovarian and with K-562 leukemia was greater than 100 µM each time. Further, the TGI with MOLT-4 leukemia and in the test on LOX IMVI melanoma was greater than 100 µM in each case.

`Nc1nc(-c2ccccc2)cc(-c2cc(Cl)ccc2O)n1`: the TGI with M14 melanoma is greater than 100 µM; in the test on NCI-H522 lung, 99.7 µM; in the test with KM12 colon it was greater than 100 µM; with SK-OV-3 ovarian, 77.8 µM; in the test on SNB-19 CNS, greater than 100 µM; with K-562 leukemia, greater than 100 µM. Further, the TGI in the test with MOLT-4 leukemia and in the test with LOX IMVI melanoma was greater than 100 µM in each case.

Consider `NC(=O)C(=O)Cc1nc2ccccc2s1`, for which the TGI in the test on M14 melanoma, in the test on NCI-H522 lung, in the test with KM12 colon, in the test on SK-OV-3 ovarian, with SNB-19 CNS and with K-562 leukemia was greater than 100 µM in each case. Besides, the TGI in the test on MOLT-4 leukemia and in the test on LOX IMVI melanoma was greater than 100 µM throughout.

Take `CC(=O)c1c(O)c2c([nH]c1=O)CCCC2`: the TGI with M14 melanoma is greater than 100 µM; in the test on SK-OV-3 ovarian it was 48.5 µM; in the test on SNB-19 CNS, 33.9 µM; in the test on K-562 leukemia, greater than 100 µM; with MOLT-4 leukemia, greater than 100 µM; in the test on LOX IMVI melanoma, greater than 100 µM.

In the case of `Cc1csc(CCC(N)C(=O)O)n1` (configuration not stated), the TGI with M14 melanoma, in the test with SK-MEL-5 melanoma, with NCI-H522 lung, in the test on KM12 colon, in the test with SK-OV-3 ovarian and with K-562 leukemia was greater than 100 µM in each case. Further, the TGI in the test with MOLT-4 leukemia and with LOX IMVI melanoma was greater than 100 µM throughout.
